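All cell lines were grown in 96-well plates and treated with compound for 48 hours. Abbreviation: GI50, concentration required for 50% inhibition of growth.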 Calls of active or inactive are those of the source. Rule as the data show it: active = GI50 up to about 1.1 µM and inactive = higher.
Columns and labels:
Test in all cases: NCI anticancer screen, dose series, 48 h
HOP-62 = tested on: HOP-62
NCI-H460 = tested on: NCI-H460
UO-31 = tested on: UO-31
COLO 205 = tested on: COLO 205
SF-539 = tested on: SF-539
OVCAR-4 = tested on: OVCAR-4
SNB-19 = tested on: SNB-19
A498 = tested on: A498
OVCAR-5 = tested on: OVCAR-5
SN12C = tested on: SN12C
MOLT-4 = tested on: MOLT-4
SR = tested on: SR
CAKI-1 = tested on: CAKI-1
HOP-18 = tested on: HOP-18
HT-29 = tested on: HT-29
HCT-15 = tested on: HCT-15
HCT-116 = tested on: HCT-116
OVCAR-8 = tested on: OVCAR-8
HCC 2998 = tested on: HCC 2998
SNB-75 = tested on: SNB-75

O=C(CSc1ncnc2[nH]cnc12)c1ccccc1
GI50 (HOP-62): > 100 µM (inactive) | GI50 (NCI-H460): > 100 µM (inactive) | GI50 (UO-31): > 95.7 µM (inactive) | GI50 (COLO 205): > 91 µM (inactive) | GI50 (SF-539): > 100 µM (inactive) | GI50 (OVCAR-4): > 48 µM (inactive) | GI50 (SNB-19): > 100 µM (inactive) | GI50 (A498): > 100 µM (inactive) | GI50 (OVCAR-5): > 57.1 µM (inactive) | GI50 (SN12C): > 100 µM (inactive) | GI50 (MOLT-4): > 65.6 µM (inactive) | GI50 (SR): 92.5 µM (inactive) | GI50 (CAKI-1): 75.2 µM (inactive) | GI50 (HOP-18): > 100 µM (inactive) | GI50 (HT-29): > 100 µM (inactive) | GI50 (HCT-15): > 100 µM | GI50 (HCT-116): > 100 µM (inactive) | GI50 (OVCAR-8): > 100 µM (inactive)

COC1OC(CO)C(O)C(NC(=O)N(C)N=O)C1O (stereo unspecified)
GI50 (NCI-H460): > 100 µM (inactive) | GI50 (UO-31): > 100 µM (inactive) | GI50 (HCC 2998): > 100 µM (inactive) | GI50 (COLO 205): > 100 µM (inactive) | GI50 (SF-539): > 100 µM (inactive) | GI50 (OVCAR-4): > 100 µM (inactive) | GI50 (SNB-19): > 100 µM (inactive) | GI50 (A498): > 100 µM (inactive) | GI50 (SN12C): > 100 µM (inactive) | GI50 (MOLT-4): > 100 µM (inactive) | GI50 (SNB-75): > 100 µM (inactive) | GI50 (SR): > 100 µM (inactive) | GI50 (CAKI-1): > 100 µM (inactive) | GI50 (HOP-18): > 100 µM (inactive) | GI50 (HT-29): > 100 µM (inactive) | GI50 (HCT-15): > 100 µM | GI50 (HCT-116): > 100 µM (inactive) | GI50 (OVCAR-8): > 100 µM (inactive)

COc1ccc(C(=O)NCCN(C)C)c2nc3ccccc3nc12
GI50 (HOP-62): 3.3 µM (inactive) | GI50 (HCC 2998): 5.15 µM (inactive) | GI50 (COLO 205): 3.46 µM (inactive) | GI50 (SF-539): 4.57 µM (inactive) | GI50 (OVCAR-4): 4.09 µM (inactive) | GI50 (SNB-19): 6.01 µM (inactive) | GI50 (A498): 4.21 µM (inactive) | GI50 (OVCAR-5): 8.61 µM (inactive) | GI50 (SN12C): 3.62 µM (inactive) | GI50 (MOLT-4): 1.94 µM (inactive) | GI50 (SNB-75): 8.11 µM (inactive) | GI50 (SR): 0.708 µM (active) | GI50 (HOP-18): > 30.8 µM (inactive) | GI50 (HT-29): 2.76 µM (inactive) | GI50 (HCT-15): 3.66 µM | GI50 (HCT-116): 2.24 µM (inactive) | GI50 (OVCAR-8): 4.3 µM (inactive)

O=C(Nc1ccccc1C(=O)O)C(=O)C(C(=O)c1ccccc1-c1ccccc1)C1OC(=O)c2ccccc21 (stereo unspecified)
GI50 (HOP-62): 18 µM (inactive) | GI50 (NCI-H460): 17.8 µM (inactive) | GI50 (UO-31): 18 µM (inactive) | GI50 (HCC 2998): 16.5 µM (inactive) | GI50 (COLO 205): 24 µM (inactive) | GI50 (SF-539): 16.6 µM (inactive) | GI50 (OVCAR-4): 35 µM (inactive) | GI50 (SNB-19): 16.1 µM (inactive) | GI50 (A498): 19.3 µM (inactive) | GI50 (OVCAR-5): 23.6 µM (inactive) | GI50 (SN12C): 17.1 µM (inactive) | GI50 (MOLT-4): 21.8 µM (inactive) | GI50 (SNB-75): 25.1 µM (inactive) | GI50 (SR): 18.3 µM (inactive) | GI50 (CAKI-1): 36 µM (inactive) | GI50 (HOP-18): 12.6 µM (inactive) | GI50 (HT-29): 29.7 µM (inactive) | GI50 (HCT-15): 16.5 µM | GI50 (HCT-116): 22 µM (inactive) | GI50 (OVCAR-8): 15.7 µM (inactive)

CN(C)CCNC(=O)c1cccc2nc3cc(Cl)ccc3nc12
GI50 (HOP-62): 2.14 µM (inactive) | GI50 (UO-31): 4.26 µM (inactive) | GI50 (HCC 2998): 2.65 µM (inactive) | GI50 (COLO 205): 1.86 µM (inactive) | GI50 (SF-539): 3.12 µM (inactive) | GI50 (OVCAR-4): 2.42 µM (inactive) | GI50 (SNB-19): 3.4 µM (inactive) | GI50 (A498): 1.65 µM (inactive) | GI50 (OVCAR-5): 3.05 µM (inactive) | GI50 (SN12C): 2.07 µM (inactive) | GI50 (MOLT-4): 0.378 µM (active) | GI50 (SNB-75): 2.52 µM (inactive) | GI50 (SR): 0.531 µM (active) | GI50 (CAKI-1): 4.59 µM (inactive) | GI50 (HOP-18): 17.5 µM (inactive) | GI50 (HT-29): 1.36 µM (inactive) | GI50 (HCT-15): 2.43 µM | GI50 (HCT-116): 0.764 µM (active) | GI50 (OVCAR-8): 1.99 µM (inactive)

CN(C)C(=S)/N=c1\ss/c(=N\S(=O)(=O)c2ccccc2)n1C
GI50 (HOP-62): > 100 µM (inactive) | GI50 (NCI-H460): > 100 µM (inactive) | GI50 (UO-31): > 100 µM (inactive) | GI50 (HCC 2998): > 100 µM (inactive) | GI50 (SF-539): > 100 µM (inactive) | GI50 (OVCAR-4): > 100 µM (inactive) | GI50 (SNB-19): > 100 µM (inactive) | GI50 (A498): > 100 µM (inactive) | GI50 (OVCAR-5): > 100 µM (inactive) | GI50 (SN12C): > 100 µM (inactive) | GI50 (MOLT-4): > 100 µM (inactive) | GI50 (SNB-75): 39.2 µM (inactive) | GI50 (SR): > 100 µM (inactive) | GI50 (CAKI-1): > 100 µM (inactive) | GI50 (HOP-18): > 100 µM (inactive) | GI50 (HT-29): > 100 µM (inactive) | GI50 (HCT-15): > 100 µM | GI50 (HCT-116): > 100 µM (inactive) | GI50 (OVCAR-8): > 100 µM (inactive)

Nc1ncnc2c1ncn2C1OC(CSCC(F)(F)F)C(O)C1O (stereo unspecified)
GI50 (HOP-62): > 100 µM (inactive) | GI50 (NCI-H460): > 100 µM (inactive) | GI50 (UO-31): > 100 µM (inactive) | GI50 (HCC 2998): > 100 µM (inactive) | GI50 (COLO 205): > 100 µM (inactive) | GI50 (SF-539): > 100 µM (inactive) | GI50 (OVCAR-4): > 100 µM (inactive) | GI50 (SNB-19): > 100 µM (inactive) | GI50 (OVCAR-5): > 100 µM (inactive) | GI50 (SN12C): > 100 µM (inactive) | GI50 (MOLT-4): > 100 µM (inactive) | GI50 (SNB-75): > 100 µM (inactive) | GI50 (SR): > 100 µM (inactive) | GI50 (CAKI-1): > 100 µM (inactive) | GI50 (HOP-18): > 100 µM (inactive) | GI50 (HT-29): > 100 µM (inactive) | GI50 (HCT-15): > 100 µM | GI50 (HCT-116): > 100 µM (inactive) | GI50 (OVCAR-8): > 100 µM (inactive)

CCCCOCc1cc(CN2CCN(C)CC2)c(O)c2ncccc12
GI50 (HOP-62): 14.4 µM (inactive) | GI50 (NCI-H460): 7.46 µM (inactive) | GI50 (UO-31): 9.66 µM (inactive) | GI50 (HCC 2998): 24.3 µM (inactive) | GI50 (COLO 205): 29.6 µM (inactive) | GI50 (SF-539): 19.4 µM (inactive) | GI50 (OVCAR-4): 21.5 µM (inactive) | GI50 (SNB-19): 30.8 µM (inactive) | GI50 (A498): 24.8 µM (inactive) | GI50 (OVCAR-5): 24.4 µM (inactive) | GI50 (SN12C): 21.9 µM (inactive) | GI50 (MOLT-4): 4.79 µM (inactive) | GI50 (SNB-75): 52.7 µM (inactive) | GI50 (SR): 3.49 µM (inactive) | GI50 (CAKI-1): 24.6 µM (inactive) | GI50 (HOP-18): 5.35 µM (inactive) | GI50 (HT-29): 31.6 µM (inactive) | GI50 (HCT-15): 2.77 µM | GI50 (HCT-116): 14.7 µM (inactive) | GI50 (OVCAR-8): 17.8 µM (inactive)

CCOC(=O)N1C(c2ccccc2)C=CC(c2ccccc2)N1C(=O)OCC (stereo unspecified)
GI50 (HOP-62): > 100 µM (inactive) | GI50 (NCI-H460): > 100 µM (inactive) | GI50 (COLO 205): > 100 µM (inactive) | GI50 (SF-539): > 100 µM (inactive) | GI50 (OVCAR-4): > 100 µM (inactive) | GI50 (SNB-19): > 100 µM (inactive) | GI50 (A498): > 100 µM (inactive) | GI50 (OVCAR-5): > 100 µM (inactive) | GI50 (SN12C): > 100 µM (inactive) | GI50 (SNB-75): 42.9 µM (inactive) | GI50 (SR): > 100 µM (inactive) | GI50 (CAKI-1): > 100 µM (inactive) | GI50 (HOP-18): > 100 µM (inactive) | GI50 (HT-29): > 100 µM (inactive) | GI50 (HCT-15): > 100 µM | GI50 (HCT-116): > 100 µM (inactive) | GI50 (OVCAR-8): > 100 µM (inactive)

CC(C)(C)c1ccnc(/N=C2\N/C(=N\c3cc(C(C)(C)C)ccn3)c3ccccc32)c1
GI50 (HOP-62): 31.6 µM (inactive) | GI50 (NCI-H460): 38.7 µM (inactive) | GI50 (UO-31): 32 µM (inactive) | GI50 (COLO 205): > 100 µM (inactive) | GI50 (SF-539): 67.1 µM (inactive) | GI50 (OVCAR-4): > 100 µM (inactive) | GI50 (SNB-19): 22.2 µM (inactive) | GI50 (A498): 19.9 µM (inactive) | GI50 (OVCAR-5): > 100 µM (inactive) | GI50 (SN12C): > 100 µM (inactive) | GI50 (MOLT-4): 7.14 µM (inactive) | GI50 (SNB-75): > 100 µM (inactive) | GI50 (SR): 31.4 µM (inactive) | GI50 (CAKI-1): 26.6 µM (inactive) | GI50 (HOP-18): 18.3 µM (inactive) | GI50 (HT-29): 12.4 µM (inactive) | GI50 (HCT-15): 24.3 µM | GI50 (HCT-116): 14.6 µM (inactive) | GI50 (OVCAR-8): 17.9 µM (inactive)
